How the values were obtained:
[1] = tested on: HCV genotype 1a L31V variant with leucine 31 changed to valine in the NS5A protein; assay: microbe, parasite or virus in culture; type: cell-based; details: genotype 1a L31V replicon; test compound titrated with compound N47 fixed at 200 nM versus singly
[2] = tested on: HCV genotype 1a Y93H variant with tyrosine 93 changed to histidine in the NS5A protein; assay: microbe, parasite or virus in culture; type: cell-based; details: genotype 1a Y93H replicon; test compound titrated with compound N47 fixed at 200 nM versus singly
Method in brief: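 In an HCV genotype 1a replicon cell-based assay carrying the NS5A Y93H substitution, BMS-790052 was tested alone and in combination with a fixed amount of a second test compound. The combinations were examined for synergistic activity.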

Compound | Fold-Synergistic G-1a (L31V) [1] [fold] | Fold-Synergistic G-1a (Y93H) [2] [fold]
CC(C)[C@H](NC(=O)OCc1ccccc1)C(=O)Nc1ccc(-c2cnc(-c3ccc(NC(=O)[C@@H](NC(=O)OCc4ccccc4)C(C)C)cc3)o2)cc1 | <10 | <10
O=C(OCc1ccccc1)N1C[C@H](O)C[C@H]1c1nc2cc(C#Cc3ccc4[nH]c([C@@H]5C[C@@H](O)CN5C(=O)OCc5ccccc5)nc4c3)ccc2[nH]1 | <10 | <10
O=C(Nc1ccc(/C=C/c2ccc(NC(=O)[C@@H]3CCCCN3C(=O)OCc3ccccc3)cc2)cc1)[C@@H]1CCCCN1C(=O)OCc1ccccc1 | <10 | <10
O=C(Nc1ccc(/C=C/c2ccc(NC(=O)[C@@H]3COCN3C(=O)OCc3ccccc3)cc2)cc1)[C@@H]1COCN1C(=O)OCc1ccccc1 | <10 | <10
O=C(c1nc(Cl)cc2ccccc12)N1CCC[C@H]1c1nc2ccc(C#Cc3ccc4nc([C@@H]5CCCN5C(=O)c5nc(Cl)cc6ccccc56)[nH]c4c3)cc2[nH]1 | <10 | <10
O=C(Nc1ccc(C#Cc2ccc(NC(=O)[C@@H]3CCCN3C(=O)CC3CC3)cc2)cc1)[C@@H]1CCCN1C(=O)CC1CC1 | <10 | <10
O=C1[C@@H]2CCCN2C(=O)C(c2ccccc2)N1c1ccc(/C=C/c2ccc(N3C(=O)[C@@H]4CCCN4C(=O)C3c3ccccc3)cc2)cc1 (some centres unmarked) | <10 | <10
CN(C)[C@@H](C(=O)N1CCC[C@H]1C(=O)Nc1ccc(C#Cc2ccc(NC(=O)[C@@H]3CCCN3C(=O)[C@@H](c3ccccc3)N(C)C)cc2)cc1)c1ccccc1 | <10 | <10
COC(=O)NC(C(=O)N1[C@@H](C)CC[C@H]1c1nc2ccc3cc(C#CC#Cc4ccc5c(ccc6nc([C@@H]7CC[C@H](C)N7C(=O)C(NC(=O)OC)C7CCOCC7)[nH]c65)c4)ccc3c2[nH]1)C1CCOCC1 (some centres unmarked) | <10 | <10
COC(=O)N[C@H](C(=O)N1C[C@@H](C)C[C@H]1c1ncc(-c2ccc(-c3ccc4cc(-c5cnc([C@@H]6C[C@H](C)CN6C(=O)[C@@H](NC(=O)OC)C(C)C)[nH]5)ccc4c3)cc2)[nH]1)C(C)C | <10 | >10
COC(=O)N[C@H](C(=O)N1[C@@H]2C[C@@H]2C[C@H]1c1nc(-c2ccc3cc(-c4ccc5cc(-c6c[nH]c([C@@H]7C[C@H]8C[C@H]8N7C(=O)[C@@H](NC(=O)OC)C(C)C)n6)ccc5c4)ccc3c2)c[nH]1)C(C)C | <10 | <10
COC(=O)N[C@H](C(=O)N1[C@@H]2C[C@@H]2C[C@H]1c1ncc(-c2ccc(-c3ccc4nc(-c5cnc([C@@H]6C[C@H]7C[C@H]7N6C(=O)[C@@H](NC(=O)OC)C(C)C)[nH]5)ccc4c3)cc2)[nH]1)C(C)C | <10 | >10
COC(=O)N[C@H](C(=O)N1C[C@H](C)C[C@H]1c1ncc(-c2ccc(-c3ccc4cc(-c5cnc([C@@H]6C[C@@H](C)CN6C(=O)[C@@H](NC(=O)OC)C(C)C)[nH]5)ccc4c3)cc2)[nH]1)C(C)C | <10 | >10
COC(=O)N[C@H](C(=O)N1[C@H](c2nc(-c3ccc(-c4ccc(-c5c[nH]c([C@@H]6C[C@@H]7CCC[C@@H]7N6C(=O)[C@@H](NC(=O)OC)C(C)C)n5)cc4)cc3)c[nH]2)C[C@@H]2CCC[C@@H]21)C(C)C | >100 | >100
COC(=O)N[C@H](C(=O)N1CCCC1c1cn(-c2ccc(-c3ccc(-n4cnc(C5CCCN5C(=O)[C@@H](NC(=O)OC)C(C)C)c4)cc3)cc2)cn1)C(C)C (some centres unmarked) | >10 | >10
COC(=O)N[C@H](C(=O)N1[C@@H]2C[C@@H]2C[C@H]1c1nc(-c2ccn3nc(-c4ccc(-c5cnc([C@@H]6C[C@H]7C[C@H]7N6C(=O)[C@@H](NC(=O)OC)C(C)C)[nH]5)cc4)cc3c2)c[nH]1)C(C)C | >100 | >100

Compound | Fold-Synergistic G-1a (L31V) [1] [fold] | Fold-Synergistic G-1a (Y93H) [2] [fold]
COC(=O)N[C@H](C(=O)N1[C@@H]2C[C@@H]2C[C@H]1c1nc(-c2cccc3c(-c4ccc(-c5cnc([C@@H]6C[C@H]7C[C@H]7N6C(=O)[C@@H](NC(=O)OC)C(C)C)[nH]5)cc4)cccc23)c[nH]1)C(C)C | >100 | >100
COC(=O)N[C@H](C(=O)N(C)[C@@H](C)c1ncc(-c2ccc(C#Cc3ccc(-c4cnc([C@H](C)N(C)C(=O)[C@@H](NC(=O)OC)C(C)C)[nH]4)cc3)cc2)[nH]1)C(C)C | >10 | <10
C=C1C[C@@H](c2nc(-c3ccc(-c4ccc5cc(-c6c[nH]c([C@@H]7CC(=C)CN7C(=O)[C@@H](NC(=O)OC)C(C)C)n6)ccc5c4)cc3)c[nH]2)N(C(=O)[C@@H](NC(=O)OC)C(C)C)C1 | <10 | >100
COC(=O)N[C@H](C(=O)N1[C@@H]2C[C@@H]2C[C@H]1c1ncc(-c2ccc(C#Cc3ccc(-c4cnc([C@@H]5C[C@H]6C[C@H]6N5C(=O)[C@@H](NC(=O)OC)C(C)C)[nH]4)cc3C)c(C)c2)[nH]1)C(C)C | <10 | <10
COC(=O)N[C@H](C(=O)N1[C@@H]2CCC[C@@H]2C[C@H]1c1nc(-c2ccc(-c3ccc(-c4c[nH]c([C@@H]5C[C@H]6CCC[C@H]6N5C(=O)[C@@H](NC(=O)OC)C(C)C)n4)cc3)cc2)c[nH]1)C(C)C | >100 | >100
COC(=O)N[C@H](C(=O)N1[C@@H]2C[C@@H]2C[C@H]1c1nc(-c2ccc3oc(-c4ccc(-c5cnc([C@@H]6C[C@H]7C[C@H]7N6C(=O)[C@@H](NC(=O)OC)C6CCOCC6)[nH]5)cc4)cc3c2)c[nH]1)C1CCOCC1 | <10 | <10
COC(=O)N[C@H](C(=O)N1CCOC[C@H]1c1nc(-c2ccc(-c3ccc4cc(-c5c[nH]c([C@@H]6COCCN6C(=O)[C@@H](NC(=O)OC)C(C)C)n5)ccc4c3)cc2)c[nH]1)C(C)C | >10 | >10
COC(=O)N[C@H](C(=O)N1CCCC[C@H]1c1nc(-c2ccc(-c3ccc4cc(-c5c[nH]c([C@@H]6CCCCN6C(=O)[C@@H](NC(=O)OC)C(C)C)n5)ccc4c3)cc2)c[nH]1)C(C)C | >10 | <10
COC(=O)N[C@H](C(=O)N1[C@H](C)CC[C@H]1c1nc(-c2ccc(-c3ccc4cc(-c5c[nH]c([C@@H]6CC[C@@H](C)N6C(=O)[C@@H](NC(=O)OC)C(C)C)n5)ccc4c3)cc2)c[nH]1)C(C)C | >10 | <10
COC(=O)N[C@H](C(=O)N1CCC[C@H]1C(=O)NC1Cc2ccc(-c3ccc4c(c3)CC(NC(=O)[C@@H]3CCCN3C(=O)[C@@H](NC(=O)OC)C(C)C)C4)cc2C1)C(C)C (some centres unmarked) | >10 | >10
COC(=O)N[C@H](C(=O)N1[C@@H](C)CC[C@H]1c1ncc(-c2ccc3c(c2)CCc2cc(-c4cnc([C@@H]5CC[C@H](C)N5C(=O)[C@@H](NC(=O)OC)C(C)C)[nH]4)ccc2-3)[nH]1)C(C)C | >100 | >100
COC(=O)N[C@H](C(=O)N1[C@@H]2C[C@@H]2C[C@H]1c1cnc(-c2ccc(C#Cc3ccc(-c4ncc([C@@H]5C[C@H]6C[C@H]6N5C(=O)[C@@H](NC(=O)OC)C(C)C)[nH]4)cc3)cc2)[nH]1)C(C)C | <10 | >10
COC(=O)N[C@H](C(=O)N1[C@@H](C)CC[C@H]1c1ncc(-c2ccc3c(c2)Cc2cc(-c4cnc([C@@H]5CC[C@H](C)N5C(=O)[C@@H](NC(=O)OC)C(C)C)[nH]4)ccc2-3)[nH]1)C(C)C | >100 | >100
COC(=O)NC(C(=O)N1[C@@H](C)CC[C@H]1c1ncc(-c2ccc(-c3cnc(-c4cnc([C@@H]5CC[C@H](C)N5C(=O)[C@@H](NC(=O)OC)[C@H]5C[C@@H](C)O[C@@H](C)C5)[nH]4)c4cccn34)cc2)[nH]1)[C@H]1C[C@@H](C)O[C@@H](C)C1 (some centres unmarked) | >10 | >100
COC(=O)N[C@H](C(=O)N1CC2(CC2)C[C@H]1c1nc(-c2ccc3c(c2)C(F)(F)c2cc(-c4ccc5nc([C@@H]6[C@H]7CC[C@H](C7)N6C(=O)[C@@H](NC(=O)OC)C(C)C)[nH]c5c4)ccc2-3)c[nH]1)C(C)C | >10 | >100

Source: patent US20160158200A1, “Combinations of Hepatitis C Virus Inhibitors” (priority 2013, published 2016)
